According to US9969758B2, “Antimicrobial compounds” (BIOMERIEUX, priority 2014, dated 2018):
Converted amounts (≈) assume the structure as drawn.

Legend:
[1] = system: methicillin-resistant Staphylococcus aureus; assay: MIC by agar dilution; assay type: cell-based
How it was run: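 Agar dilution in peptone-free medium with 2% saponin-lysed horse blood, 25.0 μg/mL NAD and 25.0 μg/mL hemin; compounds at 0.016–32 μg/mL for gram-positives. Inoculum 10 000 CFU/spot; plates incubated 22 hours at 37° C, at least two independent replicates.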

E. aerogenes (n=1) = assay: MIC by agar dilution; assay type: cell-based, Enterobacter aerogenes
Excerpt: Bacterial isolates. […] These included Citrobacter freundii (n=5), other species of Citrobacter (n=4), Enterobacter aerogenes (n=1), Enterobacter cloacae (n=27), Escherichia coli (n=53), Klebsiella oxytoca (n=5), Klebsiella pneumoniae (n=87), Kluyvera spp (n=1), Proteus mirabilis (n=8), Providencia rettgeri (n=2), Salmonella spp (n=3), and Serratia marcescens (n=1). Among these 197 isolates, there were 128 (65%) carbapenemase producers, including; 87 with NDM-1, 9 with IMP, 11 with KPC, 14 with OXA-48 and 7 with VIM. The majority of the carbapenemase producers jointly produced broad-spectrum β-lactamases (BSBL) or cephalosporinases (AmpC β-lactamases), but the latter are not documented for the sake of clarity.
Determining the minimum inhibitory concentrations (MIC). All the MICs were determined using an agar dilution method. This required use of a medium without a defined antagonist (peptone-free), prepared as described previously with the inclusion of 2% horse blood lysed with saponin, 25.0 μg/mL of NAD and 25.0 μg/mL of hemin [17]. […] The MICs of fosfomycin were determined by the same method, except that the IsoSensitest medium (Oxoid, Basingstoke, United Kingdom) was used, plus 25.0 μg/mL of glucose-6-phosphate (Sigma, Poole, United Kingdom) and an extended range of fosfomycin concentrations. […]

For `C[C@H](N)C(=O)N[C@@H](C)P(=O)(O)O` [Alafosfalin, L-alanyl-L-1-aminoethylphosphonic acid], the MIC90 ([1]; MRSA (37)) was 8 µg/mL (≈ 40.8 µM), the “MIC Range” value ([1]; MRSA (37)) was 0.125 to 16 µg/mL and the MIC50 ([1]; Staphylococcus aureus, MRSA) was 4 µg/mL (≈ 20.4 µM). The MIC90 ([1]; Staphylococcus aureus, MRSA) was 8 µg/mL (≈ 40.8 µM), the MIC ([1]; Staphylococcus aureus, MRSA, read-out: Modal MIC (most frequent MIC)) was 4 µg/mL (≈ 20.4 µM) and the “concentration to which all the isolates were sensitive” value (E. aerogenes (n=1)) was ≤ 4 µg/mL.
